Results: patent EP4620466A1, “TRIMETHOXYSTYRYL DERIVATIVES FOR USE IN THE TREATMENT OF PACLITAXEL-RESISTANT CANCER” (Instituto de Investigación Biomédica de Salamanca De la …, priority 2024, dated 2025)

system: HeLa cells; experiment: Cell proliferation assay (XTT), cytostatic activity; assay type: cell-based; details: 72-h treatment, XTT cell proliferation kit
Procedure: […] cells were seeded in 96-well plates and incubated in the presence or the absence of the indicated compounds at concentrations ranging from 10^-5 to 10^-12 M. The cytostatic activity was measured after 72-h treatments using the XTT (sodium 3'-[1-(phenylaminocarbonyl)-3,4-tetrazolium]-bis(4- methoxy-6-nitro)-benzenesulfonic acid hydrate) cell proliferation kit (Roche Molecular Biochemicals; Mannheim, Germany) following the manufacturer's specifications. Each condition was seeded in triplicate, and experiments were repeated three times to calculate IC values by non-linear regression fitting the data.

Work on `COc1cc(C(=NO)c2ccc3c(c2)c(C#N)cn3C)cc(SC)n1` [Compound 88] yielded an IC50 greater than 1000 nM.

same assay, conditions: Homo sapiens, 72-h treatment, XTT cell proliferation kit

`CSc1cc(C(=O)c2ccc3c(c2)c(C=O)cn3C)cc(Cl)n1` [Compound 67, 5-(2-Chloro-6-(methylsulfanyl)isonicotinoyl)-1-methyl-1H indole-3-carbaldehyde] and `COc1cc(C(=O)c2ccc3c(c2)c(C=O)cn3C)cc(SC)n1` [Compound 84, 5-(2-methoxy-6-(methylsulfanyl)isonicotinoyl)-1-methyl-1H-indole-3-carbaldehyde] cannot be ordered by IC50: greater than 1000 nM for the first, greater than 1000 nM for the second.

First: CSc1cc(C(=O)c2ccc3c(ccn3C)c2)cc(SC)n1 [Compound 73, (2,6-Bis(methylsulfanyl)pyridin-4-yl) (1-methyl-1H-indol-5-yl)methanone]
Second: C=C(c1cc(SC)nc(SC)c1)c1ccc2c(ccn2C)c1 [Compound 74, 5-(1-(2,6-Bis(methylsulfanyl)pyridin-4-yl)vinyl)-1-methyl-1H-indole]
The IC50 of the first is 2.5-fold lower: 200 nM for the first, 500 nM for the second. The first is the more potent here.

Compared with `C=C(c1cc(Cl)nc(N(C)C)c1)c1ccc2c(c1)c(C#N)cn2C` [Compound 100, 5-(1-(2-chloro-6-(dimethylamino)pyridin-4-yl)vinyl)-1-methyl-1H-indole-3-carbonitrile], `C=C(c1cc(Cl)nc(Cl)c1)c1ccc2c(c1)c(C#N)cn2C` [Compound 62, 5-(1-(2,6-dichloropyridin-4-yl)vinyl)-1-methyl-1H-indole-3-carbonitrile] is 7.5-fold lower in IC50: 600 nM for the first, 80 nM for the second. The second is the more potent here.

Going from `C=C(c1cc(SC)nc(N(C)C)c1)c1ccc2c(ccn2C)c1` [Compound 90, N,N-dimethyl-4-(1-(1-methyl-1H-indol-5-yl)vinyl)-6-(methylthio)pyridin-2-amine] to `CSc1cc(C(=NO)c2ccc3c(ccn3C)c2)cc(N(C)C)n1` [Compound 91, (2-(Dimethylamino)-6-(methylthio)pyridin-4-yl)(1-methyl-1H-indol-5-yl)methanone oxime], the IC50 rises from 200 nM to 600 nM (3-fold).

First: C=C(c1cc(OC)nc(SC)c1)c1ccc2c(ccn2C)c1 [Compound 82, 5-(1-(2-methoxy-6-(methylsulfanyl)pyridin-4-yl)vinyl)-1-methyl-1H-indole]
Second: COc1cc(C(=O)c2ccc3c(ccn3C)c2)cc(SC)n1 [Compound 81, (2-methoxy-6-(methylthio)pyridin-4-yl)(1-methyl-1H-indol-5-yl)methanone]
The IC50 of the first is 3-fold higher: 600 nM for the first, 200 nM for the second. The second is the more potent here.

First: C=C(c1cc(Cl)nc(Cl)c1)c1ccc2c(c1)c(C(N)=O)cn2C [Compound 63, 5-(1-(2,6-dichloropyridin-4-yl)vinyl)-1-methyl-1H-indole-3-carboxamide]
Second: C=C(c1cc(Cl)nc(Cl)c1)c1ccc2c(c1)c(C=O)cn2C [Compound 58, 5-(1-(2,6-dichloropyridin-4-yl)vinyl)-1-methyl-1H-indole-3-carbaldehyde]
The IC50 of the first is 4-fold lower: 50 nM for the first, 200 nM for the second. The first is the more potent here.

`C=C(c1cc(OC)c(OC)c(OC)c1)c1ccc2c(c1)c(C(N)=O)cn2C` [Compound 25, 1-Methyl-5-(1-(3,4,5-trimethoxyphenyl)vinyl)-1H-indole-3-carboxamide] and `C=C(c1cc(OC)c(OC)c(OC)c1)c1ccc2c(c1)c(C#N)cn2C` [Compound 23, 1-Methyl-5-[1-(3,4,5-trimethoxyphenyl)vinyl]-1H-indole-3-carbonitrile] are within 1.5-fold of each other in IC50: 2.5 nM for the first, 2.9 nM for the second.

Going from `COc1cc(C(=O)c2ccc3c(c2)c(C=O)cn3C)cc(OC)c1OC` [Compound 9, 1-Methyl-5-[1-(3,4,5-trimethoxybenzoyl)]-1H-indole-3-carbaldehyde] to `COc1ccc(C(=O)c2ccc3c(c2)c(C=O)cn3C)c(OC)c1OC` [Compound 10, 1-Methyl-5-(2,3,4-trimethoxybenzoyl)-1H-indole-3-carbaldehyde], the IC50 rises from 320 nM to 780 nM (2.4-fold). The first is the more potent here.

First: COc1cc(C(=O)c2ccc3c(c2)c(C#N)cn3C)cc(SC)n1 [Compound 87, 5-(2-methoxy-6-(methylsulfanyl)isonicotinoyl)-1-methyl-1H-indole-3-carbonitrile]
Second: CSc1cc(C(=O)c2ccc3c(c2)c(C=O)cn3C)cc(N(C)C)n1 [Compound 92, 5-(2-(dimethylamino)-6-(methylthio)isonicotinoyl)-1-methyl-1H-indole-3-carbaldehyde]
The IC50 of the first is lower: 800 nM for the first, greater than 1000 nM for the second. The first is the more potent here.

First: COc1ccc(C(C)c2ccc3c(ccn3C)c2)c(OC)c1OC (stereo not drawn) [Compound 14, 1-Methyl-5-(1-(2,3,4-trimethoxyphenyl)ethyl)-1H-indole]
Second: COc1ccc(C(=O)c2ccc3c(ccn3C)c2)c(OC)c1OC [Compound 4, (1-methyl-1H-indol-5-yl)(2,3,4-trimethoxyphenyl)methanone]
The IC50 of the first is 18-fold higher: 310 nM for the first, 17 nM for the second.

Compared with `COc1cc(C(O)c2ccc3c(ccn3C)c2)cc(OC)c1OC` (stereo not drawn) [Compound 1, (1-methyl-1H-indol-5-yl)(3,4,5-trimethoxyphenyl)methanol], `C=C(c1ccc2c(c1)c(C=O)cn2C)c1ccc(OC)c(OC)c1OC` [Compound 12, 1-Methyl-5-[1-(2,3,4-trimethoxyphenyl)vinyl]-1H-indole-3-2carbaldehyde] is lower in IC50: greater than 1000 nM for the first, 32 nM for the second. The second is the more potent here.

Compared with `C=C(c1cc(Cl)nc(N(C)C)c1)c1ccc2c(ccn2C)c1` [Compound 99, 6-chloro-N,N-dimethyl-4-(1-(1-methyl-1H-indol-5-yl)vinyl)pyridin-2-amine], `CSc1cc(C(=O)c2ccc3c(ccn3C)c2)cc(Cl)n1` [Compound 64, (2-chloro-6-(methylthio)pyridin-4-yl)(1-methyl-1H-indol-5-yl)methanone] is 3-fold higher in IC50: 100 nM for the first, 300 nM for the second. The first is the more potent here.

`Cn1cc(C=O)c2cc(C(=O)c3cc(Cl)nc(Cl)c3)ccc21` [Compound 57, 5-(2,6-dichloroisonicotinoyl)-1-methyl-1H-indole-3-carbaldehyde] and `C=C(c1cc(Cl)nc(Cl)c1)c1ccc2c(c1)c(C=NO)cn2C` [Compound 61, 5-(1-(2,6-dichloropyridin-4-yl)vinyl)-1-methyl-1H-indole-3-carbaldehyde oxime] cannot be ordered by IC50: greater than 1000 nM for the first, greater than 1000 nM for the second.

Compared with `C=C(c1ccc2c(c1)c(C#N)cn2C)c1ccc(OC)c(OC)c1OC` [Compound 24, 1-Methyl-5-[1-(2,3,4-trimethoxyphenyl)vinyl]-1H-indole-3-carbonitrile], `C=C(c1cc(Cl)nc(SC)c1)c1ccc2c(c1)c(C(=O)O)cn2C` [Compound 72, 5-(1-(2-Chloro-6-(methylsulfanyl)pyridin-4-yl)vinyl)-1-methyl-1H-indole-3-carboxylic acid] is 2.5-fold higher in IC50: 32 nM for the first, 80 nM for the second.

Work on `Cn1cc(C=NO)c2cc(C(=NO)c3cc(Cl)nc(Cl)c3)ccc21` [Compound 59, 5-((2,6-dichloropyridin-4-yl)(hydroxyimino)methyl)-1-methyl-1H-indole-3-carbaldehyde oxime] yielded an IC50 greater than 1000 nM.

system: HeLa cells; experiment: Cell proliferation assay with and without verapamil (MDR transporter check); assay type: cell-based; details: with verapamil versus without

For `COc1cc(/C=C\c2ccc3c(c2)c(C#N)cn3C)cc(OC)c1OC` [Compound 33, (Z)-1-Methyl-5-(3,4,5-trimethoxystyryl)-1H-indole-3-carbonitrile], the “potency increase with addition of verapamil” value (from here on “potency increase with addition”) was “more than 10 fold”.
In the case of `COc1cc(/C=C\c2ccc3c(c2)c(/C=N/O)cn3C)cc(OC)c1OC` [Compound 31, (Z + E)-1-methyl-5-(3,4,5-trimethoxystyryl)-1H-indole-3-carbaldehyde oxime], the “potency increase with addition” value is reported as “more than 10 fold”.
With `COc1cc(/C=C\c2ccc3c(c2)c(C=O)cn3C)cc(OC)c1OC` [Compound 29, (Z)-1-Methyl-5-(3,4,5-trimethoxystyryl)-1H-indole-3-carbaldehyde] the “potency increase with addition” value was “more than 10 fold”.
